Laboratory results reported in ChEMBL document CHEMBL1201862, “PubChem BioAssay data set” (2004).
Activity calls are given as the source filed them.

Assays:
[1] = Luminescence Cell-Based Dose Confirmation HTS to Identify Inhibitors of Platelet Dense Granule Release. [Related pubchem assays: 1663 (Primary HTS), 1678 (Summary of Project)]; assay type: functional
[2] = biological target: Protein Tat (Human immunodeficiency virus type 1 group M subtype B (isolate HXB2)(HIV-1), UniProt P04608); assay type: functional;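 further: tat binding to TAR RNA read out by fluorescence polarization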
Sequence of Protein Tat (P04608 whole entry): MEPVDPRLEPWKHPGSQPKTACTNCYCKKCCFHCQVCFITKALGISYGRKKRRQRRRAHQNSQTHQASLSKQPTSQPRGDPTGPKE

[3] = biological target: Luciferin 4-monooxygenase (Photinus pyralis, UniProt P08659); assay: inhibition of purified Photinus pyralis luciferase – biochemical, luminescence, dose response (AID 1891)
Sequence of Luciferin 4-monooxygenase (P08659 whole entry): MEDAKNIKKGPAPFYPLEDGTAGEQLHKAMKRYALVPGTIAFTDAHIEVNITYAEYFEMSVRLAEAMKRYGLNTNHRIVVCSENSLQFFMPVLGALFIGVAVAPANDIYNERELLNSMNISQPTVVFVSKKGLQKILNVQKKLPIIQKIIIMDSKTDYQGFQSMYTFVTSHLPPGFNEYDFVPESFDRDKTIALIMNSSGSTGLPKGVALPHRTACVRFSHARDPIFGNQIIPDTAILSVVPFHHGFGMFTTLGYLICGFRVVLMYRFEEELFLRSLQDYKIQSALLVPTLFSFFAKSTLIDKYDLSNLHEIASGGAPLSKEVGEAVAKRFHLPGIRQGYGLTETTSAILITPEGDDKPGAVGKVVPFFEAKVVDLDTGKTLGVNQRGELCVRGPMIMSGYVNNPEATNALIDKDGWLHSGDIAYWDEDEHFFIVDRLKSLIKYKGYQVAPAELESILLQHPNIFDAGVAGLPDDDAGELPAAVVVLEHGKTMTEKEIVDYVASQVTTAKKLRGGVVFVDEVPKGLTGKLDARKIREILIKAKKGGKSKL

[4] = biological target: Glutathione-S-transferase (Schistosoma japonicum, UniProt Q26513); assay: GST-antibody interaction or FRET quenching – biochemical, TR-FRET, artefact control for Vif-APOBEC3G degradation inhibitor project, dose response (AID 1117362); assay type: functional
Sequence of Glutathione-S-transferase (Q26513 whole entry): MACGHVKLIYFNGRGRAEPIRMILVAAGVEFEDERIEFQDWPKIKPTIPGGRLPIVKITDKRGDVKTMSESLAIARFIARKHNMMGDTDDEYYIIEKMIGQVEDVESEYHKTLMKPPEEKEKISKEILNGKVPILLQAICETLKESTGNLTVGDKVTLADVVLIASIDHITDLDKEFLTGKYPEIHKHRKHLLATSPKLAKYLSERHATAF

[5] = rise of 2N DNA cells, HeLa – IC50, dose response (AID 1117349); assay type: functional, cell-based
[6] = tested on: P388/ADR; assay: cells; assay type: functional; settings: Mus musculus
[7] = rise of 4N DNA cells, HeLa – IC50, dose response (AID 1117351); assay type: functional, cell-based
[8] = tested on: SN12K1; assay: cells; assay type: functional; settings: Homo sapiens
[9] = tested on: P388; assay: cells; assay type: functional; settings: Mus musculus
[10] = luciferase reporter signal suppression in cells – H4 neuroglioma cells, luminescence, dose response (AID 1990); assay type: functional, cell-based
[11] = Luminescence Cell-Based Dose Response HTS to Identify Inhibitors of 5'UTR Stem-Loop Driven Prion Protein mRNA Translation in H4 Neuroglioblastoma Cells. [Related pubchem assays: 1827 (Project Summary), 1813 (Primary HTS)]; assay type: functional
[12] = alpha-synuclein stem-loop luciferase translation blockers – H4 neuroglioma cells, luminescence, confirmation (AID 1988); assay type: functional, cell-based
[13] = biological target: FAD-linked sulfhydryl oxidase ALR (Homo sapiens, UniProt P55789); assay: ALR-catalysed DTT oxidation blockers – biochemical, H2O2 detection, luminescence, cherry-pick, dose response (AID 493248)
Sequence of FAD-linked sulfhydryl oxidase ALR (P55789 whole entry): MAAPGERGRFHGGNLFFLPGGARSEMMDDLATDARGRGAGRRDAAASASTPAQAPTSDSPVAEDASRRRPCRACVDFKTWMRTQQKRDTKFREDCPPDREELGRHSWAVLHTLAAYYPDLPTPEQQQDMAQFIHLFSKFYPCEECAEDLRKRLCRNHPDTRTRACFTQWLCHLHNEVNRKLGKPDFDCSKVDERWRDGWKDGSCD

[14] = OV-90 cell viability loss – plate reader, dry powder, SA8, PAX8 inhibitor project, dose response (AID 743149); assay type: functional, cell-based
[15] = inhibitors acting on PAX2 in cells – cell-based, plate reader, dry powder samples, selectivity assay for PAX8 inhibitor project, dose response (AID 743048); assay type: functional;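 further: HEK293 cells carrying a WT1 promoter luciferase reporter driven by expressed Pax2; potency is for inhibition of Pax2 driven reporter signal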
[16] = PAX8-dependent cell viability loss – plate reader, dry powder, dose response (AID 743049); assay type: functional, cell-based
[17] = PAX5 cellular inhibition readout – cell-based, plate reader, dry powder samples, selectivity assay for PAX8 inhibitor project, dose response (AID 743047); assay type: functional;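 further: HEK293 cells carrying a Pax5 driven CD19 promoter luciferase reporter; potency of inhibitors that lower reporter luminescence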
[18] = biological target: Paired box protein Pax-8 (Homo sapiens, UniProt Q06710); assay: PAX8 transcriptional activity inhibition in RMG-I – RMG-I cells, luciferase, cherry-pick, dose response (AID 687027); assay type: functional, cell-based;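 further: luciferase reporter driven by Pax8 target thyroperoxidase promoter measured by SteadyGlo luminescence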
Sequence of Paired box protein Pax-8 (Q06710 whole entry): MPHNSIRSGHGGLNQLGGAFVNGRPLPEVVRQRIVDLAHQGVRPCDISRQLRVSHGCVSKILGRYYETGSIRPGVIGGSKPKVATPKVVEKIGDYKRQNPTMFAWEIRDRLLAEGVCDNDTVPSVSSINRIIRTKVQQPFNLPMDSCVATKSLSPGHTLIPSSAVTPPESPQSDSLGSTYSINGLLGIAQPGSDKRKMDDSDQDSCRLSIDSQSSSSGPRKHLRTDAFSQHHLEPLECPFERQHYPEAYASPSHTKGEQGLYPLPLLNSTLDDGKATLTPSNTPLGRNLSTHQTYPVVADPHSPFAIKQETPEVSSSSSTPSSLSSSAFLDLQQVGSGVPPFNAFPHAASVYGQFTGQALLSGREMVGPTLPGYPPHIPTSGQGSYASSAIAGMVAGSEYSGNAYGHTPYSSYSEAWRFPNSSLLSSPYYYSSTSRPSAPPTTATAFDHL

[19] = growth inhibition of yeast DHODH-expressing 3D7 parasites – SYBR Green, dry powder samples, dose response (AID 1159570); assay type: functional, cell-based;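 further: parasite growth measured after 72 hours of compound exposure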
[20] = Dd2 parasite growth inhibition in erythrocytes – SYBR Green, dry powder samples, set 9, dose response (AID 1159568); assay type: functional, cell-based
[21] = growth inhibition of PfATP4-mutant resistant parasites – NITD609-resistant line, SYBR Green, dry powder, dose response (AID 1159571); assay type: functional, cell-based;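 further: parasites synchronized at ring stage by sorbitol before testing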
[22] = Plasmodium falciparum Dd2 Sybr green parasite growth Measured in Cell-Based and Microorganism Combination System Using Plate Reader - 2153-01_Inhibitor_Dose_DryPowder_Activity_Set3.; assay type: functional
[23] = Dd2 malaria parasite growth inhibition potency – SYBR Green, dry powder samples, dose response (AID 1159566); assay type: functional, cell-based;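 further: potency for growth inhibition with lower SYBR green DNA signal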
[24] = P. falciparum Dd2 growth inhibitors, dose response, SYBR Green, cherry-picked samples (AID 1159567); assay type: functional, cell-based
[25] = toxicity to human HepG2 hepatoma cells – cell-based, plate reader, dry powder samples, cytotoxicity control, dose response (AID 1159569); assay type: functional;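 further: inhibitor potency with signal falling toward the positive control level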
[26] = toxicity to human hepatoma HepG2 cells – cell-based, cherry-picked samples, cytotoxicity control, dose response (AID 1159577); assay type: functional
[27] = biological target: Vasopressin V2 receptor (Homo sapiens, UniProt P30518); assay: Late-stage results from the probe development effort to identify antagonists of arginine vasopressin receptor 1a (AVPR1a): fluorescence-based cell-based dose response AVPR2 inhibition counterscreen assay.; assay type: functional
Sequence of Vasopressin V2 receptor (P30518 whole entry): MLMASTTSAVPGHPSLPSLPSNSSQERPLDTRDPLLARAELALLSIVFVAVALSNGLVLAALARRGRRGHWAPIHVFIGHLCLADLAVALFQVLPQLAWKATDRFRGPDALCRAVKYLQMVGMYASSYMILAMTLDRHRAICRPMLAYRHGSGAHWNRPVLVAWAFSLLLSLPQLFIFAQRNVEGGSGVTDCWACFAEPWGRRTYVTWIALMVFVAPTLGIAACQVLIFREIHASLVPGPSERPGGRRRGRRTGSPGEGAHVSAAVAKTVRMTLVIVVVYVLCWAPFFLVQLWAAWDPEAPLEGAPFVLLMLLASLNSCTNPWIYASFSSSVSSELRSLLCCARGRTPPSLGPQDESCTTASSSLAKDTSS

[28] = Late-stage results from the probe development effort to identify antagonists of arginine vasopressin receptor 1a (AVPR1a): fluorescence-based cell-based dose response AVPR1a inhibition assay.; assay type: functional
[29] = Late-stage results from the probe development effort to identify antagonists of arginine vasopressin receptor 1a (AVPR1a): fluorescence-based cell-based dose response OXTR inhibition counterscreen assay.; assay type: functional
[30] = biological target: Vasopressin V1b receptor (Homo sapiens, UniProt P47901); assay: Late-stage results from the probe development effort to identify antagonists of arginine vasopressin receptor 1a (AVPR1a): fluorescence-based cell-based dose response AVPR1b inhibition counterscreen assay.; assay type: functional
Sequence of Vasopressin V1b receptor (P47901 whole entry): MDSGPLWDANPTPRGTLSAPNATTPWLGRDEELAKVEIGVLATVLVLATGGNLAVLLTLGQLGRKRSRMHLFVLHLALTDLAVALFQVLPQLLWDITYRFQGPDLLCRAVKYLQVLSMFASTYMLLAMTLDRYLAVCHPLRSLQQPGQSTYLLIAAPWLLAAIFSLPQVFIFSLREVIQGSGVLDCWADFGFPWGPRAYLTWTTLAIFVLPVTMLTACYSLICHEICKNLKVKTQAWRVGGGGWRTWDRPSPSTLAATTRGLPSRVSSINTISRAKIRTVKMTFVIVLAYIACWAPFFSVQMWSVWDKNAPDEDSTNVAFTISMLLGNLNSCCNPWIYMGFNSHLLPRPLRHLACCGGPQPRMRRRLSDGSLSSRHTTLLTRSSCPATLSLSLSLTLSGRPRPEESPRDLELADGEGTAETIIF

[31] = toxicity to A549 lung cells – cell-based, plate reader, dry powder, set 6, cytotoxicity control, dose response (AID 743312); assay type: functional
[32] = cells; settings: HEK293
[33] = toxicity to HepG2 liver cells – cell-based, plate reader, dry powder, set 6, cytotoxicity control, dose response (AID 743311); assay type: functional
[34] = viability loss in HEK293T cells – cell-based, ATP luminescence, dry powder, set 3, cytotoxicity control, dose response (AID 743131); assay type: functional; settings: HEK293

For `O=C(NC(=S)N1CCCc2ccccc21)c1ccccc1`, the EC50 [1] was > 112 µM (not active), the IC50 [2] was > 100 µM (active) and the EC50 [3] was > 112 µM (not active). The IC50 [4] was 90.8 µM (active).
With `O=C(O)CCCc1ccc(N(CCCl)CCCl)cc1` [CHLORAMBUCIL] the IC50 [5] was > 10 µM (inactive), the GI50 [6] was 6.25 µM (inactive) and the IC50 [7] was > 10 µM (inactive). The GI50 [8] was 49.5 µM (inactive), the GI50 [9] was 3.73 µM (inactive) and the EC50 [10] was > 120 µM (not active). For the same compound, the EC50 [11] was > 120 µM (not active), the EC50 [12] was 32.6 µM (active) and the AC50 [13] was < 0.005 µM (active).
For `N#C[C@@H]1[C@@H](c2ccc(-c3ccccc3F)cc2)[C@@H](CO)N1C(=O)C1CCC1`, the AC50 [14] was > 70 µM (inactive), the AC50 [15] was > 70 µM (inactive) and the AC50 [16] was > 70 µM (inactive). For the same compound, the AC50 [17] was 60.8 µM (active) and the AC50 [18] was 8.88 µM (active).
With `COc1ccc(-c2ccc([C@H]3[C@@H](C#N)N(C(=O)NC(C)C)[C@H]3CO)cc2)cc1` the AC50 [19] was 3.98 µM (active), the AC50 [20] was 1.2 µM (active) and the AC50 [21] was 0.874 µM (active). The AC50 [22] was 1.86 µM (active), the AC50 [23] was 0.559 µM (active) and the AC50 [24] was 0.89 µM (active). The AC50 [25] was 80.6 µM (active) and the AC50 [26] was 3.33 µM (active).
In the case of `N#Cc1ccnc(N2CCC(C(=O)N(CC3CC3)c3ccc(Cl)cc3)CC2)c1`, the IC50 [27] is reported as > 50 µM (inactive), the IC50 [28] is reported as 0.0628 µM (active) and the IC50 [29] is reported as 4.6 µM (active). The IC50 [30] was > 50 µM (inactive).
With `Cc1cc2ncn(CCOc3ccccc3C)c2cc1C` the AC50 [31] was 11.4 µM (active), the AC50 [32] was 47.4 µM (active) and the AC50 [33] was 36.5 µM (active).
In the case of `Cc1ccccc1OCCn1c(S)nc2ccccc21`, the AC50 [34] is reported as 0.344 µM (active).
